Measurements published in US10344060B2 (priority 2013, dated 2019).
Read-outs that look alike come from different tables or passages of the source.

Experiments:
hNav1.4 = hNav1.4 (Homo sapiens, UniProt P35499); assay: cell-based; type: cell-based; conditions: for IC50: PatchXpress, read-out: PX hNav1.4 Tonic IC50; for Nav1.4/Nav1.7: ratio of PX tonic IC50 values
hNav1.7 = hNav1.7 (Homo sapiens, UniProt Q15858); assay: cell-based; type: cell-based; conditions: for IC50: PatchXpress, read-out: PX hNav1.7 Tonic IC50
Chain of hNav1.7 (Q15858 whole entry): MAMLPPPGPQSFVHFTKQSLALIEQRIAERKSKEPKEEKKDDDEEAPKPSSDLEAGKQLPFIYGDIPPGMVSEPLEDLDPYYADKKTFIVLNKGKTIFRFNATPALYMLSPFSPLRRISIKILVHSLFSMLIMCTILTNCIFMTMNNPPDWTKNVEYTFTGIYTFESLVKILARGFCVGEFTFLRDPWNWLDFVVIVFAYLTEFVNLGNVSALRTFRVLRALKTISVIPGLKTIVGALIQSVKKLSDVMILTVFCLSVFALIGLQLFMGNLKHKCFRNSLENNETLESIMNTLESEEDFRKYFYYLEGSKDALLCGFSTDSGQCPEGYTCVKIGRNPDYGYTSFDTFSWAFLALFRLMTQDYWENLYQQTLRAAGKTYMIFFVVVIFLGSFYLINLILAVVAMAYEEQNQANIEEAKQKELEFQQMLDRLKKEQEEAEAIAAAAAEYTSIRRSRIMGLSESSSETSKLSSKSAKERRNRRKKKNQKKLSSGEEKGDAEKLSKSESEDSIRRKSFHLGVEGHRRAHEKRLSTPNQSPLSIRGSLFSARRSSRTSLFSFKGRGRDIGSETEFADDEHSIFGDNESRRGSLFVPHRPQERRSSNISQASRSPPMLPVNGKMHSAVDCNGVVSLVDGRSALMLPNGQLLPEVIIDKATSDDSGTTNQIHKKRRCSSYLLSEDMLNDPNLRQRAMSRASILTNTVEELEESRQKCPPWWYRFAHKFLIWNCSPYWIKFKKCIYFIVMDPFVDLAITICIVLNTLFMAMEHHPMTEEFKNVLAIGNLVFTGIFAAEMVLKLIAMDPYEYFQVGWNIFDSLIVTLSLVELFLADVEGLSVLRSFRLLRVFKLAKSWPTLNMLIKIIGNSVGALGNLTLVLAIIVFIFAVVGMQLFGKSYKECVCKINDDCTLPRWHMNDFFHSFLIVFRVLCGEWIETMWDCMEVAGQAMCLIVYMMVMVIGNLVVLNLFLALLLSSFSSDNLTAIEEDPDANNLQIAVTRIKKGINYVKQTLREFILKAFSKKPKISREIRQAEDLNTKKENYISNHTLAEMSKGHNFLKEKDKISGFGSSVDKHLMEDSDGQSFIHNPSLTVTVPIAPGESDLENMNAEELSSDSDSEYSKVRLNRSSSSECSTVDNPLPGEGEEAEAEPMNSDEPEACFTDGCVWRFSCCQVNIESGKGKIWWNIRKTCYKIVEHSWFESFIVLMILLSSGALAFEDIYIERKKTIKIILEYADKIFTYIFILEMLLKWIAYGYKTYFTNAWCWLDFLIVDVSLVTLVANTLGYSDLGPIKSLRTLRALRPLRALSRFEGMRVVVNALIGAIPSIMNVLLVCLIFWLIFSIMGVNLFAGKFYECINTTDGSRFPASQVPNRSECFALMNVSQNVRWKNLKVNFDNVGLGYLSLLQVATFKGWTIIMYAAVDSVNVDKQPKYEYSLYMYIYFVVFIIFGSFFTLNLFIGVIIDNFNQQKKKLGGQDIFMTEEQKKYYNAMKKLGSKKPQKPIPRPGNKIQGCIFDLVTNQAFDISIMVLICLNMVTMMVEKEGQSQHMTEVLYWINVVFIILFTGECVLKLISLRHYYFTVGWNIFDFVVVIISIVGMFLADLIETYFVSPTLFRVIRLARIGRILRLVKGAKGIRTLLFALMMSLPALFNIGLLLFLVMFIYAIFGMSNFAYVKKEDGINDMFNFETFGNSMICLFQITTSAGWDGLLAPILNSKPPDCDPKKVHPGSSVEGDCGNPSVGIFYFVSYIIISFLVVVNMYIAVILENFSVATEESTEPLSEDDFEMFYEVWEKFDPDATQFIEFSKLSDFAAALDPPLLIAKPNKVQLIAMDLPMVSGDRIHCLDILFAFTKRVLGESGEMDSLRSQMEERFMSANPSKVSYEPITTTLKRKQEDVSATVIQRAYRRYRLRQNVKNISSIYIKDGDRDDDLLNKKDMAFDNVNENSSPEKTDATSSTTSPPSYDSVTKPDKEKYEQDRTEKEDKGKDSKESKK

Chain of hNav1.4 (P35499 whole entry): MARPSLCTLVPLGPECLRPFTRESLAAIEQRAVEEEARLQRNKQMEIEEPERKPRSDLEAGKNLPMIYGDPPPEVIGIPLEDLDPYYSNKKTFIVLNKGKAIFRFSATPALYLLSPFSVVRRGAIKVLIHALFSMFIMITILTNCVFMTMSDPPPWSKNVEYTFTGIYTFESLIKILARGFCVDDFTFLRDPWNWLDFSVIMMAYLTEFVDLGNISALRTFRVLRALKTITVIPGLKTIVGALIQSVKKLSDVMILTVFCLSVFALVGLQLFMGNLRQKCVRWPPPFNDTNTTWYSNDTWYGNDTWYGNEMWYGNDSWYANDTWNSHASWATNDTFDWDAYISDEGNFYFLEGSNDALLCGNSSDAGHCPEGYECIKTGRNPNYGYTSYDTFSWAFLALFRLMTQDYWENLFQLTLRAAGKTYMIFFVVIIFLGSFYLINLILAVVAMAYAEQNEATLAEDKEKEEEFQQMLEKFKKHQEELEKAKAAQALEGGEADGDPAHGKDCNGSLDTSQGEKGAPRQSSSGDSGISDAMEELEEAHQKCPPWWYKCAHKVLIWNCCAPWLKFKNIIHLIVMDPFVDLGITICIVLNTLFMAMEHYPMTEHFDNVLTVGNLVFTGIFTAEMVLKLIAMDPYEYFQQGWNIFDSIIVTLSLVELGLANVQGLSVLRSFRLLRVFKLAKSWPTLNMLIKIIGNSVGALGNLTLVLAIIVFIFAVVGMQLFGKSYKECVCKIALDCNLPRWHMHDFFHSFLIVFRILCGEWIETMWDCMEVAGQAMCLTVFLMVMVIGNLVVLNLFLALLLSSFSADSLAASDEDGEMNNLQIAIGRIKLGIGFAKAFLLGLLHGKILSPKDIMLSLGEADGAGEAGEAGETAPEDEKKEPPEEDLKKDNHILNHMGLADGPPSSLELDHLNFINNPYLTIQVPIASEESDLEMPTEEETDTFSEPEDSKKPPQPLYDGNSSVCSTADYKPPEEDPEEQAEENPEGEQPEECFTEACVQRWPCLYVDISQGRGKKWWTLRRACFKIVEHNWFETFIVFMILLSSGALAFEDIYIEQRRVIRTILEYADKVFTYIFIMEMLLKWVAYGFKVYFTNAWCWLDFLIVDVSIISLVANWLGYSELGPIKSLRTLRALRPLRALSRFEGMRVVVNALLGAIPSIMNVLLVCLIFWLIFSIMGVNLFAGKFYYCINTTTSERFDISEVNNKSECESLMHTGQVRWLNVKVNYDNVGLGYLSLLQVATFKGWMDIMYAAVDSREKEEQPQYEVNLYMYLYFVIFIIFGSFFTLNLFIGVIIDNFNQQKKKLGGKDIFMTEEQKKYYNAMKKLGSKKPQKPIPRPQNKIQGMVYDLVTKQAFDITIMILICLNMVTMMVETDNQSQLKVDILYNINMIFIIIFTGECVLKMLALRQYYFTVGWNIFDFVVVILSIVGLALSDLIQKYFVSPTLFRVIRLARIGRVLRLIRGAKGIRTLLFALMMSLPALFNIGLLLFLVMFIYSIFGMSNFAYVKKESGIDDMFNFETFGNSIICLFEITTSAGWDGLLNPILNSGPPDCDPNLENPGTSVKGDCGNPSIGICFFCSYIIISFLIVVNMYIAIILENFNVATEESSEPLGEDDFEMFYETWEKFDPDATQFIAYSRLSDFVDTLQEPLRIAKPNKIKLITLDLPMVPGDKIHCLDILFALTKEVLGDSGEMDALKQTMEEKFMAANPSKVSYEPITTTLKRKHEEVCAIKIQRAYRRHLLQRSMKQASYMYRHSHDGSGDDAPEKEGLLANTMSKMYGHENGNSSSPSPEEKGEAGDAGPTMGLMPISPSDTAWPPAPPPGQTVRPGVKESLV

SMILES	IC50 (hNav1.4; tonic, Table 11) [µM]	IC50 (hNav1.7; tonic, Table 11) [µM]	Nav1.4/Nav1.7 (hNav1.7; ratio of PX tonic IC50 values, Table 11)	IC50 (hNav1.4; Table 12, tonic block) [µM]	Nav1.4/Nav1.7 (hNav1.4; Table 12)	IC50 (hNav1.7; Table 12, tonic block) [µM]
CC[C@H](C)[C@H](NC(=O)[C@@H](NC(=O)[C@H](CCCCN)NC(=O)[C@H](CCCNC(=N)N)NC(=O)[C@@H]1CSSC[C@@H]2NC(=O)[C@H](C)NC(=O)[C@H](CCCNC(=N)N)NC(=O)[C@H](CCCCN)NC(=O)[C@H](CO)NC(=O)[C@H](CC(=O)O)NC(=O)[C@@H]3CSSC[C@H](NC(=O)[C@H](CCCNC(=N)N)NC(=O)[C@H](CC(C)C)NC(=O)CNC(=O)[C@H](CCC(=O)O)NC(=O)[C@H](CSSC[C@H](NC(=O)[C@@H](N)Cc4ccc(O)cc4)C(=O)N[C@@H](CCC(=O)O)C(=O)N[C@@H](CCCCN)C(=O)N[C@@H](Cc4c[nH]c5ccccc45)C(=O)N[C@@H](CCSC)C(=O)N[C@@H](Cc4c[nH]c5ccccc45)C(=O)N[C@@H]([C@@H](C)O)C(=O)N3)NC2=O)C(=O)N[C@@H](CCCCN)C(=O)N[C@@H](CC(C)C)C(=O)N[C@@H](Cc2c[nH]c3ccccc23)C(=O)N1)[C@@H](C)CC)C(N)=O [compound 50]	0.453	0.0587	8	–	–	–
C#CC[C@H](N)C(=O)N[C@@H](Cc1ccc(O)cc1)C(=O)N[C@H]1CSSC[C@@H]2NC(=O)[C@@H]3CSSC[C@@H](C(=O)N[C@@H](CCCNC(=N)N)C(=O)N[C@@H](CCCCN)C(=O)N[C@@H](CCC(=O)O)C(=O)N[C@@H](Cc4ccccc4)C(N)=O)NC(=O)[C@H](Cc4c[nH]c5ccccc45)NC(=O)[C@H](CC(C)C)NC(=O)[C@H](CCCCN)NC(=O)[C@H](CSSC[C@H](NC(=O)[C@H]([C@@H](C)O)NC(=O)[C@H](Cc4c[nH]c5ccccc45)NC(=O)[C@H](CCCC)NC(=O)[C@H](Cc4c[nH]c5ccccc45)NC(=O)[C@H](CCCCN)NC(=O)[C@H](CCC(N)=O)NC1=O)C(=O)N[C@@H](CC(=O)O)C(=O)N[C@@H](CO)C(=O)N[C@@H](CCCCN)C(=O)N[C@@H](CCCNC(=N)N)C(=O)N[C@@H](C)C(=O)N3)NC(=O)[C@H](CCCNC(=N)N)NC(=O)[C@H](CC(C)C)NC(=O)CNC(=O)[C@H](CCC(=O)O)NC2=O [compound 861]	–	–	–	0.304	785	0.000388
C#CC[C@H](N)C(=O)N[C@@H](Cc1ccc(O)cc1)C(=O)N[C@H]1CSSC[C@@H]2NC(=O)[C@@H]3CSSC[C@@H](C(=O)N[C@@H](CCCNC(=N)N)C(=O)N[C@@H](CCCCN)C(=O)N[C@@H](CCC(=O)O)C(=O)N[C@H](C(N)=O)[C@@H](C)CC)NC(=O)[C@H](Cc4c[nH]c5ccccc45)NC(=O)[C@H]([C@@H](C)CC)NC(=O)[C@H](CCCCN)NC(=O)[C@H](CSSC[C@H](NC(=O)[C@H]([C@@H](C)O)NC(=O)[C@H](Cc4c[nH]c5ccccc45)NC(=O)[C@H](CCCC)NC(=O)[C@H](Cc4c[nH]c5ccccc45)NC(=O)[C@H](CCCCN)NC(=O)[C@H](CCC(N)=O)NC1=O)C(=O)N[C@@H](CC(=O)O)C(=O)N[C@@H](CO)C(=O)N[C@@H](CCCCN)C(=O)N[C@@H](CCCNC(=N)N)C(=O)N[C@@H](C)C(=O)N3)NC(=O)[C@H](CCCNC(=N)N)NC(=O)[C@H](CC(C)C)NC(=O)CNC(=O)[C@H](CCC(=O)O)NC2=O [compound 855]	–	–	–	0.193	182	0.00106
C#CC[C@@H]1NC(=O)[C@@H]2CSSC[C@H](NC(=O)[C@H](Cc3ccc(O)cc3)NC(=O)[C@@H](N)CC#N)C(=O)N[C@@H](CCC(N)=O)C(=O)N[C@@H](CCCCN)C(=O)N[C@@H](Cc3c[nH]c4ccccc34)C(=O)N[C@@H](CCCC)C(=O)N[C@@H](Cc3c[nH]c4ccccc34)C(=O)N[C@@H]([C@@H](C)O)C(=O)N[C@H]3CSSC[C@H](NC(=O)[C@H](CCCNC(=N)N)NC(=O)[C@H](CC(C)C)NC(=O)CNC1=O)C(=O)N[C@@H](CCCCN)C(=O)N[C@@H](CC(C)C)C(=O)N[C@@H](Cc1c[nH]c4ccccc14)C(=O)N[C@H](C(=O)N[C@@H](CCCNC(=N)N)C(=O)N[C@@H](CCCCN)C(=O)N[C@@H](CCC(=O)O)C(=O)N[C@@H](Cc1ccccc1)C(N)=O)CSSC[C@H](NC(=O)[C@H](C)NC(=O)[C@H](CCCNC(=N)N)NC(=O)[C@H](CCCCN)NC(=O)[C@H](CO)NC(=O)[C@H](CC(=O)O)NC3=O)C(=O)N2 [compound 876]	–	–	–	0.0721	66	0.00109
C#CC[C@@H]1NC(=O)[C@@H]2CSSC[C@H](NC(=O)[C@H](CCC(=O)O)NC(=O)[C@@H](N)CC#N)C(=O)N[C@@H](CCC(N)=O)C(=O)N[C@@H](CCCCN)C(=O)N[C@@H](Cc3c[nH]c4ccccc34)C(=O)N[C@@H](CCCC)C(=O)N[C@@H](Cc3c[nH]c4ccccc34)C(=O)N[C@@H]([C@@H](C)O)C(=O)N[C@H]3CSSC[C@H](NC(=O)[C@H](CCCNC(=N)N)NC(=O)[C@H](CC(C)C)NC(=O)CNC1=O)C(=O)N[C@@H](CCCCN)C(=O)N[C@@H](CC(C)C)C(=O)N[C@@H](Cc1c[nH]c4ccccc14)C(=O)N[C@H](C(=O)N[C@@H](CCCNC(=N)N)C(=O)N[C@@H](CCCCN)C(=O)N[C@@H](CCC(=O)O)C(=O)N[C@@H](CC1CCCCC1)C(N)=O)CSSC[C@H](NC(=O)[C@H](C)NC(=O)[C@H](CCCNC(=N)N)NC(=O)[C@H](CCCCN)NC(=O)[C@H](CO)NC(=O)[C@H](CC(=O)O)NC3=O)C(=O)N2 [compound 866]	–	–	–	0.0376	117	0.000321
C#CC[C@H](N)C(=O)NCCCC[C@@H]1NC(=O)[C@H](CCCNC(=N)N)NC(=O)[C@H](CCCCN)NC(=O)[C@H](CO)NC(=O)[C@H](CC(=O)O)NC(=O)[C@@H]2CSSC[C@@H]3NC(=O)[C@H](CCCNC(=N)N)NC(=O)[C@H](CC(C)C)NC(=O)CNC(=O)[C@H](CCC(=O)O)NC(=O)[C@H](CSSC[C@H](NC(=O)[C@H](Cc4ccc(O)cc4)NC(=O)[C@@H](N)CCC)C(=O)N[C@@H](CCC(N)=O)C(=O)N[C@@H](CCCCN)C(=O)N[C@@H](Cc4c[nH]c5ccccc45)C(=O)N[C@@H](CCCC)C(=O)N[C@@H](Cc4c[nH]c5ccccc45)C(=O)N[C@@H]([C@@H](C)O)C(=O)N2)NC(=O)[C@H](CSSC[C@@H](C(=O)N[C@@H](CCCNC(=N)N)C(=O)N[C@@H](CCCCN)C(=O)N[C@H](C(=O)N[C@H](C(N)=O)[C@@H](C)CC)[C@@H](C)CC)NC(=O)[C@H](Cc2c[nH]c4ccccc24)NC(=O)[C@H](CC(C)C)NC(=O)[C@H](CCCCN)NC3=O)NC1=O [compound 431]	–	–	–	–	13	0.00163
C#CC[C@H](N)C(=O)N[C@@H](Cc1ccc(O)cc1)C(=O)N[C@H]1CSSC[C@@H]2NC(=O)[C@@H]3CSSC[C@@H](C(=O)N[C@@H](CCCNC(=N)N)C(=O)N[C@@H](CCCCN)C(=O)N[C@@H](CCC(=O)O)C(=O)N[C@H](C(N)=O)[C@@H](C)CC)NC(=O)[C@H](Cc4c[nH]c5ccccc45)NC(=O)[C@H](CC(C)C)NC(=O)[C@H](CCCCN)NC(=O)[C@H](CSSC[C@H](NC(=O)[C@H]([C@@H](C)O)NC(=O)[C@H](Cc4c[nH]c5ccccc45)NC(=O)[C@H](CCCC)NC(=O)[C@H](CCc4ccc(Br)cc4)NC(=O)[C@H](CCCCN)NC(=O)[C@H](CCC(N)=O)NC1=O)C(=O)N[C@@H](CC(=O)O)C(=O)N[C@@H](CO)C(=O)N[C@@H](CCCCN)C(=O)N[C@@H](CCCNC(=N)N)C(=O)N[C@@H](C)C(=O)N3)NC(=O)[C@H](CCCNC(=N)N)NC(=O)[C@H](CC(C)C)NC(=O)CNC(=O)[C@H](CCC(=O)O)NC2=O [compound 1603]	–	–	–	0.0479	207	0.00023
C#CC[C@@H]1NC(=O)[C@@H]2CSSC[C@H](NC(=O)[C@H](Cc3ccc(O)cc3)NC(=O)[C@@H](N)CC#N)C(=O)N[C@@H](CCC(N)=O)C(=O)N[C@@H](CCCCN)C(=O)N[C@@H](Cc3c[nH]c4ccccc34)C(=O)N[C@@H](CCCC)C(=O)N[C@@H](Cc3c[nH]c4ccccc34)C(=O)N[C@@H]([C@@H](C)O)C(=O)N[C@H]3CSSC[C@H](NC(=O)[C@H](CCC(=O)O)NC(=O)[C@H](CC(C)C)NC(=O)CNC1=O)C(=O)N[C@@H](CCCCN)C(=O)N[C@@H](CC(C)C)C(=O)N[C@@H](Cc1c[nH]c4ccccc14)C(=O)N[C@H](C(=O)N[C@@H](CCCNC(=N)N)C(=O)N[C@@H](CCCCN)C(=O)N[C@H](C(=O)N[C@H](C(N)=O)[C@@H](C)CC)[C@@H](C)CC)CSSC[C@H](NC(=O)[C@H](C)NC(=O)[C@H](CCCNC(=N)N)NC(=O)[C@H](CCCCN)NC(=O)[C@H](CO)NC(=O)[C@H](CC(=O)O)NC3=O)C(=O)N2 [compound 396]	–	–	–	0.278	98	0.00284
C#CC[C@@H]1NC(=O)[C@@H]2CSSC[C@H](NC(=O)[C@@H](N)CC#N)C(=O)N[C@@H](CCC(N)=O)C(=O)N[C@@H](CCCCN)C(=O)N[C@@H](Cc3c[nH]c4ccccc34)C(=O)N[C@@H](CCCC)C(=O)N[C@@H](Cc3c[nH]c4ccccc34)C(=O)N[C@@H]([C@@H](C)O)C(=O)N[C@H]3CSSC[C@H](NC(=O)[C@H](CCCNC(=N)N)NC(=O)[C@H](CC(C)C)NC(=O)CNC1=O)C(=O)N[C@@H](CCCCN)C(=O)N[C@@H](CC(C)C)C(=O)N[C@@H](Cc1c[nH]c4ccccc14)C(=O)N[C@H](C(=O)N[C@@H](CCCNC(=N)N)C(=O)N[C@@H](CCCCN)C(=O)N[C@@H](CCC(=O)O)C(=O)N[C@H](C(N)=O)[C@@H](C)CC)CSSC[C@H](NC(=O)[C@H](C)NC(=O)[C@H](CCCNC(=N)N)NC(=O)[C@H](CCCCN)NC(=O)[C@H](CCC(=O)O)NC(=O)[C@H](CC(=O)O)NC3=O)C(=O)N2 [compound 1672]	–	–	–	0.457	159	0.00287
C#CC[C@H](N)C(=O)N[C@@H](Cc1ccc(O)cc1)C(=O)N[C@H]1CSSC[C@@H]2NC(=O)[C@@H]3CSSC[C@@H](C(=O)N[C@@H](CCCNC(=N)N)C(=O)N[C@@H](CCCCN)C(=O)N4CCC[C@H]4C(=O)N[C@H](C(N)=O)[C@@H](C)CC)NC(=O)[C@H](Cc4c[nH]c5ccccc45)NC(=O)[C@H](CC(C)C)NC(=O)[C@H](CCCCN)NC(=O)[C@H](CSSC[C@H](NC(=O)[C@H]([C@@H](C)O)NC(=O)[C@H](Cc4c[nH]c5ccccc45)NC(=O)[C@H](CCCC)NC(=O)[C@H](Cc4c[nH]c5ccccc45)NC(=O)[C@H](CCCCN)NC(=O)[C@H](CCC(N)=O)NC1=O)C(=O)N[C@@H](CC(=O)O)C(=O)N[C@@H](CO)C(=O)N[C@@H](CCCCN)C(=O)N[C@@H](CCCNC(=N)N)C(=O)N[C@@H](C)C(=O)N3)NC(=O)[C@H](CCCNC(=N)N)NC(=O)[C@H](CC(C)C)NC(=O)CNC(=O)[C@H](CCC(=O)O)NC2=O [compound 657]	–	–	–	0.206	105	0.00197
